The values that follow come from patent US20250121046A1, “MRNA THERAPEUTIC COMPOSITIONS” (Nutcracker Therapeutics, Inc., priority 2022, published 2025).

“Also recorded” adds a separate entry of the source.

Series [1] is described as follows: Rat toxicology study, control mRNA in DV-140-F2 intramuscular (Example 8). Conditions: Therapeutic dose scaled for rat: 4 doses in 2 weeks, 30 μg RNA IM. The series is classed as in vivo, Sprague-Dawley rats.
Test in series [2]: as above
The series is classed as in vivo, Sprague-Dawley rats. As for the experimental part: Briefly, Sprague-Dawley rats (n=8) were treated with a control mRNA formulated in DV-140-F2 at 0.03 or 0.3 mg/kg or PBS vehicle. Injections were done 4 times over the course of 13 days and were administered intramuscularly into the hind limb. Whole blood was taken for hematology, and serum taken for clinical chemistry and cytokine analysis at 6 hours post the first dose and final dose, and 2 weeks post the final dose. Additionally, 2 of the animals were sacrificed at 6 hours post the final dose and 2 weeks post final dose and a gross necropsy was performed. Tissue samples were retained and histopathology run on select organs.

Series [3] in a line: Mouse efficacy studies, tolerability assessments (Example 8). The series is classed as in vivo.
The target of the next series is T1, HVEM (Homo sapiens, UniProt Q92956).
T1 construct: host or cells: HVEM reporter cell line (not further described)
T1 sequence (Q92956 39-283): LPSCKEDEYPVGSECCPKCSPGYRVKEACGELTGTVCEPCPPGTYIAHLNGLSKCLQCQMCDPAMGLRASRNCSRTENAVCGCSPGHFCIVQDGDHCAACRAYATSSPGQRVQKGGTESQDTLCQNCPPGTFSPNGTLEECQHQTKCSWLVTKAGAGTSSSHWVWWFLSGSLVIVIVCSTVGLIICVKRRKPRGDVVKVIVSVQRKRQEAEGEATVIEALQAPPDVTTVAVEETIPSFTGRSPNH
As to the kind of experiment: HVEM activation by LIGHT-transfected cells (HVEM reporter cell line). The series is classed as cell-based. The text has this: FIGS. 1A and 1B depict the inhibition of the activation of membrane-stabilized LIGHT by soluble LIGHT.
FIG. 12 illustrates pre-blocking of soluble LIGHT in HVEM co-HEK transfected cells.
FIGS. 13A-13C are a comparison of HVEM activation with supernatant (blue) or cells (orange) for soluble LIGHT or membrane-stabilized LIGHT.
The incorporation of a modified membrane-stabilized LIGHT into a cancer immunotherapy allows for the effective targeting cancers, such as HPV-driven cancers.
[…] FIGS. 13A-13C show increased function of membrane-stabilized LIGHT on cells with HVEM reporter cell line and FIGS. 14A and 14B show increased cellular expression of membrane-stabilized LIGHT.

A further series relates to CD3+ T cells. As to the kind of experiment: T cell proliferation in co-culture with LIGHT-transfected HEK cells (Example 1). The series is classed as cell-based, human. Conditions: versus soluble (Wt) LIGHT. The procedure: (§1) LIGHT variants were formulated in MessengerMax mRNA Transfection Reagent. Human embryonic kidney (HEK) cells were transfected with the LIGHT variant constructs for cell surface expression of LIGHT. CellTrace Violet (Thermo Fischer Scientific) was used to label CD3+ T cells from the resulting peripheral blood mononuclear cells (PBMC). 100 ng/mL of soluble CD3 Antibody was added to the resulting labeled CD3+ T cells. The T cell proliferation and interferon-gamma (IFN-7) secretion was evaluated about 5 days of co-culture.

In a further series the test system is HEK cells. As to the kind of experiment: Surface expression of LIGHT on transfected cells by flow cytometry using HVEM binding. The class given is cell-based, human. Conditions: compared to soluble (wild type) LIGHT.
Text: FIG. 2A-2D are graphs illustrating the membrane-bound protein produced by the membrane-stabilized LIGHT generated according to an aspect of this disclosure as compared to soluble LIGHT.
FIGS. 14A and 14B depict the assessment of surface expression of soluble LIGHT or membrane-stabilized LIGHT by flow cytometry using HVEM binding.
This enhanced membrane stability for the disclosed membrane-stabilized LIGHT may increase the beneficial activity of LIGHT.
as §1
(A flow cytometer gives signals particle by particle.)

For the next series, the system named is primary human T cells. As to the kind of experiment: Human T cell proliferation, ENG or WT hLIGHT mRNA with hIL-12 mRNA (Example 1A). The series is classed as cell-based. Conditions: anti-CD3 30 or 100 ng/mL, 4 days, relative to IL-12 and WT hLIGHT. The procedure: This study was designed to compare the ability of ENG and WT hLIGHT mRNAs in combination with hIL-12 mRNA to stimulate primary human T cell proliferation. Human T cells were isolated from PBMCs from 1 healthy donor and stained with CellTrace Violet. HEK293 cells were transfected with hIL-12 mRNA (RNA-683) and WT hLIGHT (RNA-786) or ENG hLIGHT (RNA-1359) mRNA formulated in Lipofectamine MessengerMAX (0.5 ng each mRNA per 1000 cells). Control cells were transfected with noncoding mRNA control in the same way. Transfected HEK293 cells were cocultured with the T cells in a 1:5 ratio in the presence of 30 ng/mL or 100 ng/mL anti-CD3 antibody to mimic antigen specific TCR engagement for 4 days at 37° C., 5% CO2. CD8+ T cell proliferation was assessed by flow cytometry and the proliferation index was calculated. […] The results are shown in FIG. 10A, where ENG=engineered; HEK=human embryonic kidney; IL-12=interleukin-12; PBMC=peripheral blood mononuclear cell; WT=wildtype. The data in FIG. 10A represent mean±standard deviation (n=4). Statistical analysis was performed by unpaired student's t-test (P<0.05).

The mark [4] stands for this setting: High dose in rat: 4 doses in 2 weeks, 100 μg RNA IM.
Where [5] appears, read: Therapeutic dose in mouse: 3 doses 7 days apart, ~1-2 μg RNA IT or IM.

With `CCCCCCCCCCN(CC(N)=O)C(=O)CN(CCCCCCCCCC)C(=O)CN(CCCCCCCCCC)C(=O)CN(CCCCCCCCCC)C(=O)CNCCO` [Compound 140, N-(2-amino-2-oxoethyl)-N-decyl-2-(N-decyl-2-(N-decyl-2-(N-decyl-2-((2-hydroxyethyl)amino)acetamido)acetamido)acetamido)acetamide], the Body weight result in series [1] and in series [3] (setting [5]) was “No changes compared” in each case. Also, the Gross organ pathology entry in series [1] and in series [2] (setting [4]) was “None observed” each time. The “Injection site reactions or other clinical observations” value in series [1], in series [2] (setting [4]) and in series [3] (setting [5]) was “None observed” each time. Further, the Clinical chemistries entry in series [1] (compared to control) is on record as “No meaningful changes”; in series [2] (High dose in rat: 4 doses in 2 weeks, 100 μg RNA IM, compared to control), “No meaningful changes”. Further, the Hematology parameters entry in series [1] (compared to control) is on record as “No changes compared”; in series [2] (High dose in rat: 4 doses in 2 weeks, 100 μg RNA IM, return to baseline by D30), “Some transient changes”. Besides, the Serum cytokines result in series [1] (compared to control) is reported as “No changes compared”; in series [2] (High dose in rat: 4 doses in 2 weeks, 100 μg RNA IM, subset of cytokines, return to baseline by D30), “Elevated levels in subset”. For the same molecule, the tolerability entry in series [2] (rat toxicology studies) and in series [3] (mouse efficacy studies) was “well-tolerated” in each case.

B1: soluble LIGHT: Wild-type soluble human LIGHT (protein)
chain: MEESVVRPSVFVVDGQTDIPFTRLGRSHRRQSCSVARVGLGLLLLLMGAGLAVQGWFLLQLHWRLGEMVTRLPDGPAGSWEQLIQERRSHEVNPAAHLTGANSSLTGSGGPLLWETQLGLAFLRGLSYHDGALVVTKAGYYYIYSKVQLGGVGCPLGLASTITHGLYKRTPRYPEELELLVSQQSPCGRATSSSRVWWDSSFLGGVVHLEAGEEVVVRVLDERLVRLRDGTRSYFGAFMV
modifications: Human Wild Type LIGHT (786) aa
Take B1: the “effect of soluble LIGHT on HVEM activation/signaling by membrane-stabilized LIGHT” value in the series with HVEM (presence of soluble LIGHT) is “decreases; also recorded: competes for HVEM binding and reduces signaling”.

B2: ENG hLIGHT: mRNA encoding human LIGHT with amino acids 66-92 replaced by 10 amino acid linker …; membrane-stabilized (nucleic acid)
chain: AGGCAUAGAAGUCGAGACACAGCCACUAAGUAAGCCACCAUGGAGGAGAGCGUGGUGCGGCCUAGCGUGUUCGUGGUCGACGGCCAGACCGACAUCCCCUUCACCAGACUGGGAAGAAGCCACAGAAGGCAGUCUUGCUCCGUGGCCAGAGUGGGCCUGGGCCUGCUCCUGCUGCUGAUGGGCGCUGGCCUGGCCGUGCAAGGCUGGUUCCUGCUGCAGCUGCACUGGCGGCUGGGCAGCAGCGCCUCUACCGAUAAGACCCACACCGUGAACCCUGCCGCCCACCUGACCGGCGCCAACAGCUCUCUGACCGGAUCUGGCGGACCUCUGCUGUGGGAGACACAGCUGGGCCUUGCUUUUCUGCGGGGCCUGAGCUACCACGACGGCGCUCUGGUGGUUACAAAGGCCGGCUACUACUACAUCUACAGCAAGGUGCAGCUGGGAGGCGUGGGUUGUCCACUGGGACUGGCCAGCACAAUCACACACGGCCUUUAUAAGCGGACCCCUAGAUACCCCGAGGAACUGGAACUGCUGGUCUCCCAGCAGAGCCCUUGCGGCAGAGCCACAAGCAGCAGCAGAGUGUGGUGGGACAGCUCAUUCCUGGGCGGCGUGGUGCAUCUGGAAGCCGGCGAGAAAGUGGUGGUCAGAGUGCUGGACGAGAGACUGGUGCGGCUGAGAGAUGGGACCCGCUCCUACUUCGGCGCCUUUAUGGUGUGAUAAGCGCCGCCUCCGGGACAGUGCACCCAGGCUGCGGCCCCUCCCCCGUCCUGGAGGUUCCCCAGCCCCACUUACCGCUUAAUGCGCCAAUAAACCAAUGAACGAAGCAAAAAAAAAAAAAAAAAAAAAAAAAAAAAAAAAAAAAAAAAAAAAAAAAAAAAAAAAAAAAAAAAAAAAAAAAAAAAAAAAAAAAAAAAAAAAAAAAAAAAAAAAAAAAAAAAAAAAAAAAAAAAAAAAAAAAAAAAAAAAAAAAAAAAAAAAAAAAAAAAAAAAAAAA
modifications: LIGHT ICD TM 1-66 RLG … LIGHT 92-240 1359, aka 1495 nt
notes: mRNA encoding human LIGHT with amino acids 66-92 replaced by 10 amino acid linker …; membrane-stabilized
With B2, the “bioactivity on transfected cells” value with HVEM (compared to WT LIGHT mRNA) is “higher”. For the same molecule, the T-cell proliferation entry is given as “increase” with CD3+ T cells (listed as 1359) and “increased” with CD3+ T cells (listed as ENG LIGHT mRNA). The soluble fraction result with HEK cells is “significantly lower”. Further, the “cell-surface expression of membrane-bound protein” value with HEK cells (listed as ENG LIGHT mRNA) was “higher”; in the series with HEK cells (listed as Engineered LIGHT), “significantly higher”. For the same molecule, in the series with primary human T cells, the “CD8+ T cell proliferation and survival” value is reported as “increased”.

B3: 1356: mRNA encoding LIGHT ICD + TM (1-66) + (Gly4Ser)2 + LIGHT 92-240 (nucleic acid)
chain: AGGCAUAGAAGUCGAGACACAGCCACUAAGUAAGCCACCAUGGAAGAGUCUGUGGUCAGACCUAGCGUGUUCGUGGUCGACGGCCAGACCGACAUCCCCUUCACCAGACUGGGAAGAAGCCAUAGAAGACAGAGCUGCAGCGUGGCCAGAGUGGGCCUCGGCCUGCUGCUGCUGCUGAUGGGCGCUGGCCUGGCCGUGCAAGGCUGGUUCCUGCUGCAGCUGCACUGGCGGCUGGGCGGAGGCGGCGGCUCUGGCGGCGGAGGCUCCGUGAACCCCGCCGCCCACCUGACCGGCGCCAACAGCAGCCUGACAGGCAGCGGCGGUCCUCUGCUGUGGGAAACCCAGCUGGGACUGGCUUUUCUGAGAGGCCUGAGCUACCACGACGGCGCCCUGGUGGUGACCAAGGCCGGCUAUUACUACAUCUACAGCAAGGUGCAGCUGGGCGGCGUUGGAUGUCCUCUGGGCCUGGCUUCUACAAUCACCCACGGCCUGUACAAGCGGACCCCUAGAUACCCUGAGGAACUGGAGCUGCUGGUGUCCCAGCAGUCCCCAUGCGGCCGGGCCACAAGCUCUUCUAGAGUGUGGUGGGAUAGCAGCUUCCUGGGCGGAGUGGUGCACCUCGAGGCCGGAGAGAAAGUGGUGGUGCGGGUGCUGGAUGAGAGACUGGUUAGGCUGCGCGACGGCACACGGAGCUACUUCGGCGCCUUUAUGGUGUGAUAAGCGCCGCCUCCGGGACAGUGCACCCAGGCUGCGGCCCCUCCCCCGUCCUGGAGGUUCCCCAGCCCCACUUACCGCUUAAUGCGCCAAUAAACCAAUGAACGAAGCAAAAAAAAAAAAAAAAAAAAAAAAAAAAAAAAAAAAAAAAAAAAAAAAAAAAAAAAAAAAAAAAAAAAAAAAAAAAAAAAAAAAAAAAAAAAAAAAAAAAAAAAAAAAAAAAAAAAAAAAAAAAAAAAAAAAAAAAAAAAAAAAAAAAAAAAAAAAAAAAAAAAAAAAA
modifications: LIGHT ICD TM 1-66 RLG Gly4Ser 2 LIGHT 92-240 1356 nt
Turning to B3, the T-cell proliferation entry in the series with CD3+ T cells is listed as “increase”.
